Tests used:
[1] = Acute toxicity in rabbits; conditions: rabbit, in vivo, oral
Acute toxicity in rats = conditions: rat, in vivo, topical or ocular
in vivo = conditions: rat, po

`S=c1[nH]c2cc(Cl)c(Oc3ccc(Cl)cc3Cl)cc2[nH]1` [Example 1/2, 5-chloro-6-(2',4'-dichlorophenoxy)-2H-1,3-dihydro-benzimidazole-2-thione] showed an LD50 [1] of over 6000 mg/kg, an LD50 (Acute toxicity in rats) of over 3000 mg/kg and an LD50 (in vivo) of 3100 mg/kg.

— patent publication US4205077A, “Benzimidazole sulphides as anthelmintic agents” (Ciba-Geigy Corporation, priority 1977, dated 1980)
